Data: patent US20250115565A1, “SOLID CRYSTALLINE FORMS OF HELICASE-PRIMASE INHIBITORS AND PROCESS OF PREPARATION THEREOF” (INNOVATIVE MOLECULES GMBH, priority 2022, published 2025)
Counter-ions that a name gives are not always drawn.

How the values were obtained:
[1] = Relative bioavailability of crystalline and salt forms after single oral dose in male mice (Example 6); type: in vivo; details: male C57bl/6 mice, single oral dose adjusted to 10 mg/kg free IM-250, suspension in 0.5% HPMC in PBS, blood
Method: The relative bioavailability of crystalline and different salt forms versus suspended IM-250 (derived from a DMSO stock solution) after single dose oral administration in male C57bl/6 mice was examined. Animals (3 per group) had food withdrawn approximately 2 h before administration. The suspension was prepared from a DMSO stock solution, which was diluted 1:20 with 0.5% HPMC in PBS, ultrasonificated and orally administered with a gavage volume of 5 mL/kg. The suspensions of crystalline and different salt forms were prepared directly by adding powder to 0.5% HPMC in PBS, ultrasonificated and orally administered with a gavage volume of 5 mL/kg. Blood samples were taken at 0.5 h, 1 h, 2 h, 5 h, 12 h and 24 h via capillary microsampling and bioanalytics was measured via non-chiral LC-MS. The area-under-curve (AUC0-24 h) and relative bioavailability towards the IM-250 suspension was calculated. The doses for the salts were adjusted to 10 mg/kg free IM-250.

[2] = Chemical accelerated stability by HPLC after temperature and humidity stress (Example 7); type: physicochemical; details: for % of unchanged compound left: HPLC UV 285 nm, 3 assays
Method: (§1) The chemical and physical accelerated stability of the crystalline material was studied in order to anticipate potential stability issues upon storage or ageing. Crystals were stored for 1 month at 40° C./75% relative humidity (RH) and were also stored for 1 month at 60° C. (and % HR<10% RH). The chemical stability was assessed by HPLC by external standardization versus a freshly prepared (non-stressed) standard solution. For that purpose, six samples (exactly weighted) are stored for each condition: 3 for the 2-weeks stability and 3 for the 4-weeks stability. The physical stability was also assessed by XRPD, DSC analyses by comparing the XRPD and DSC profiles of stressed samples to those of a non-stressed sample. For that purpose, two more samples (one per time point) are stored in each condition (respectively 40° C./75% RH and 60° C.).

[3] = Physical accelerated stability by XRPD and DSC after temperature and humidity stress (Example 7); type: physicochemical
Method: XRPD analysis was performed on a Bruker D2 Phase diffractometer using a copper anti-cathode, a mono-crystalline silicone sample holder and a position sensitive detector (LynxExe). Powder sample was loaded on a flat mono-crystalline silicone sample holder in a way to avoid preferred orientation and to sensure planarity of the speciem surface. Instrument operation conditions were as follows: ambient temperature and atmosphere; X-ray generator voltage 30 kV and intensity 10 mA; X-ray source: target Copper; emission radiation Kα1=0.15406 nm, Kα2=0.15444 nm, ratio Kα2/Kα1=0.5, KB filter radiation Nickel; Slit: anti-divergence […], Sollers slit 2.5°; Goniometer: angular sector analyzed from 4° to 45° or 4° to 50° for 20, step size 0.07° for 20; Sample holder rotation speed: 30 rpm; Detection: exposition time per step size of goniometer 1 s.
DSC analysis was performed on a Q1000 TA Instruments analyzer. The sample to be analyzed was weighed in an aluminium capsule, which was then crimped and put into the calorimeter oven. Instrument operation conditions were as follows: heater ramp 10° C./min; final temperature 230° C. or 240° C.; carrier gas: nitrogen (Messer “qualité Azote 5.0”) with flow rate of 50 mL/min.
as §1

[4] = Relative bioavailability and brain exposure of d3-IM-250 HCl salt versus IM-250 HCl salt in male mice (Example 12); type: in vivo; details: mouse, male C57bl/6 mice, single oral dose 10 mg/kg; for Kp at 24 h: brain and whole blood, 24 h post dose, read-out: blood/brain ratio; for AUC(0-t): read-out: AUC0-24; for Cmax: suspension in 0.5% HPMC in PBS; for concentration at 24 h: brain 24 h post dose after PBS perfusion, read-out: brain level @ 24 h
Method: Animals (3 per group) had food withdrawn approximately 2 h before administration of 10 mg/kg of the test items. The suspensions were prepared directly by adding powder to 0.5% HPMC in PBS, ultrasonificated and orally administered with a gavage volume of 5 mL/kg. Blood samples (20 μL) were taken at 0.5 h, 1 h, 2 h, 5 h, 12 h and 24 h via capillary microsampling, collected from the tail vein into Li-heparin tubes. The samples were frozen on dry ice within 1-2 min of sampling and stored at −20° C. until LC-MS/MS analysis measured via non-chiral LC-MS. After 24 h post dose, animals were sacrificed and perfused with PBS until PBS was transparent and brain was collected and stored at −20° C. until processed for LC-MS analysis to determine the brain/blood exposure. The peak blood concentration (Cmax), elimination half-life (t1/2), area-under-curve (AUC0-24 h) and blood/brain ratio (as an easily obtainable surrogate parameter for nerve tissue exposure) was determined.

[5] = ICH long term and accelerated stability testing (Example 8); type: physicochemical
Method: The long term and accelerated chemical and physical stability was assessed at a Contract Manufacturing Organization. IM-250 HCl salt samples were primary packaged in double PE bags (50 μm, Semadeni, e.g. cat. #2439 with each tag tied with plastic twist). The secondary package was a HDPE-drum closed with a HDPE screw cap (CurTec). The storage conditions were 25±2° C./60±5% relative humidity and 40±2° C./75±5% relative humidity.

[6] = at least 4 weeks after storage at 40° C./75% RH and at 60° C.

SMILES: Cc1nc(N(C)C(=O)Cc2ccc(-c3cc(F)ccc3F)cc2)sc1[S@@](C)(=N)=O [suspended IM-250 from DMSO, (S)-2-(2′,5′-Difluoro-[1,1′-biphenyl]-4-yl)-N-methyl-N-(4-methyl-5-(S-methylsulfon-imidoyl)thiazol-2-yl)acetamide]
- AUC0-24 h [1]: 66406 ng·h/mL

SMILES: Cc1nc(N(C)C(=O)Cc2ccc(-c3cc(F)ccc3F)cc2)sc1[S@@](C)(=N)=O [IM-250 Free base Form I, (S)-2-(2′,5′-Difluoro-[1,1′-biphenyl]-4-yl)-N-methyl-N-(4-methyl-5-(S-methylsulfon-imidoyl)thiazol-2-yl)acetamide]
- AUC0-24 h [1]: 7683 ng·h/mL
- % of unchanged compound left ([2]; 40° C./75% RH, 2 wk): 99.4%
- % of unchanged compound left ([2]; 40° C./75% RH, 4 wk): 100.2%
- % of unchanged compound left ([2]; 60° C., 2 wk): 99.6%
- % of unchanged compound left ([2]; 60° C., 4 wk): 101.4%
- chemical stability as a bulk powder [2, 6]: chemically stable
- DSC Enthalpy transition ([3]; 40° C./75% RH, 2 wk): -77 J/g
- DSC melting endotherm Temperature Onset ([3]; 40° C./75% RH, 2 wk): 163 °C
- DSC melting endotherm Temperature Peak ([3]; 40° C./75% RH, 2 wk): 165 °C
- DSC Enthalpy transition ([3]; 40° C./75% RH, 4 wk): -80 J/g
- DSC melting endotherm Temperature Onset ([3]; 40° C./75% RH, 4 wk): 163 °C
- DSC melting endotherm Temperature Peak ([3]; 40° C./75% RH, 4 wk): 165 °C
- DSC Enthalpy transition ([3]; 60° C., 2 wk): -85 J/g
- DSC melting endotherm Temperature Onset ([3]; 60° C., 2 wk): 163 °C
- DSC melting endotherm Temperature Peak ([3]; 60° C., 2 wk): 164 °C
- DSC Enthalpy transition ([3]; 60° C., 4 wk): -80 J/g
- DSC melting endotherm Temperature Onset ([3]; 60° C., 4 wk): 163 °C
- DSC melting endotherm Temperature Peak ([3]; 60° C., 4 wk): 165 °C
- physical stability as a bulk powder [3, 6]: physically stable
- DSC Enthalpy transition ([3]; no stress, initial analysis): -83 J/g
- DSC melting endotherm Temperature Onset ([3]; no stress, initial analysis): 163 °C
- DSC melting endotherm Temperature Peak ([3]; no stress, initial analysis): 164 °C

SMILES: [2H]C([2H])([2H])c1nc(N(C)C(=O)Cc2ccc(-c3cc(F)ccc3F)cc2)sc1[S@@](C)(=N)=O [d3-IM-250 HCl salt]
- Kp at 24 h [4]: 0.49 ± 0.1
- AUC(0-t) ([4]; whole blood, blood): 28600 ng·h/mL
- Cmax ([4]; whole blood, blood): 2570 ng/mL
- concentration at 24 h [4]: 568 ng/g

SMILES: Cc1nc(N(C)C(=O)Cc2ccc(-c3cc(F)ccc3F)cc2)sc1[S@@](C)(=N)=O [IM-250 HCl salt]
- AUC0-24 h [1]: 68289 ng·h/mL
- Assay (HPLC, % w/w, as-is) ([5]; 6 months 25° C./60% RH): 97.9%
- Chiral purity (HPLC area %) ([5]; 6 months 25° C./60% RH): 99.9%
- Color and apperance ([5]; 6 months 25° C./60% RH): white to off-
- Purity (HPLC area %) ([5]; 6 months 25° C./60% RH): 99.2%
- Water content (% w/w) ([5]; 6 months 25° C./60% RH): 0.08%
- Assay (HPLC, % w/w, as-is) ([5]; 6 months 40° C./75% RH): 98.6%
- Chiral purity (HPLC area %) ([5]; 6 months 40° C./75% RH): 99.9%
- Color and apperance ([5]; 6 months 40° C./75% RH): white to off-
- Identity by XRPD ([5]; 6 months 40° C./75% RH): conforms to
- Purity (HPLC area %) ([5]; 6 months 40° C./75% RH): 99.1%
- Water content (% w/w) ([5]; 6 months 40° C./75% RH): 0.10%
- Assay (HPLC, % w/w, as-is) ([5]; Initial): 98.5%
- Chiral purity (HPLC area %) ([5]; Initial): 99.8%
- Color and apperance ([5]; Initial): white to off-
- Identity by XRPD ([5]; Initial): conforms to
- Purity (HPLC area %) ([5]; Initial): 99.2%
- Water content (% w/w) ([5]; Initial): 0.08%
- physical stability as a bulk powder ([5]; at least 6 month after storage at 25° C. and at 40° C.): physically stable
- Kp at 24 h [4]: 0.6 ± 0.2
- half-life ([4]; whole blood, blood): 5.7 h
- AUC(0-t) ([4]; whole blood, blood): 14400 ng·h/mL
- Cmax ([4]; whole blood, blood): 1210 ng/mL
- concentration at 24 h [4]: 175 ng/g

SMILES: Cc1nc(N(C)C(=O)Cc2ccc(-c3cc(F)ccc3F)cc2)sc1[S@@](C)(=N)=O [IM-250 Napadisylate]
- AUC0-24 h [1]: 48241 ng·h/mL
